Laboratory results reported in US12168651B1, “9-(6-flouro-2-hydroxypyridin-3-yl)-10-(2-hydroxyethyl)-3,6-diphenyl-3,4,6,7,9,10-hexahydroacridine1,8(2H,5H)-dione as an antimicrobial compound” (KING FAISAL UNIVERSITY, priority 2023, dated 2024).

Assays:
Assay type in all cases: cell-based
Details in all cases: after 10, 20, 40 and 60 minutes at all dilutions 1:100, 1:200, 1:400, 1:800
[1] = test system: Staphylococcus aureus; assay: Antimicrobial screening by agar dilution, St. Aereus
Experimental: (§1) The antibacterial properties of the synthesized compound (9-(6-flouro-2-hydroxypyridin-3-yl)-10-(2-hydroxyethyl)-3,6-diphenyl-3,4,6,7,9,10-hexahydroacridine1,8(2H,5H)-dione) were studied by the method of agar dilution. Test solutions of each compound was prepared in concentration of 1% using dimethylformamide as a solvent then they are diluted in physiological solution to obtain the final experimental dilutions 1:100, 1:200, 1:400, 1:800. The effect of these substances are compared with furacillin in a controllable study. The testing microbes used were gram positive bacteria Staphylococcus aureus, gram negative bacteria Pseudomonas aeruginosa and Escherichia coli and Candida albicans fungus. The experiments used for this survey were meat-pentonlu agar (EPA) for cultivation of bacteria and Saburo environment for the fungus. Each experiment used 1 mL of test solution on each plate […]. Two drops of emulsified with microbes feel were added. All experimental samples were taken from the agar after 10, 20, 40, 60 minutes in the environment on the basis of Patrk planted. The bacteria were cultivated at a temperature of 37° C. for 1 day and the mushroom was kept in a thermostat for […] at a temperature of 28° C. Then results were checked.

[2] = test system: Candida albicans; assay: Antimicrobial screening by agar dilution, Candida albicans
Experimental: as §1

[3] = test system: Pseudomonas aeruginosa; assay: Antimicrobial screening by agar dilution, Ps. Aeroqonaza
Experimental: as §1

[4] = test system: Escherichia coli; assay: Antimicrobial screening by agar dilution, E. Coli
Experimental: as §1

Measured: inhibition activity (in words)

O=C1CC(c2ccccc2)CC2=C1C(c1cc3cc(F)ccc3nc1O)C1=C(CC(c3ccccc3)CC1=O)N2CCO (stereo not shown)
the most higher inhibition activity: all assays above
